For assay [1], the system named is Growth Hormone Release. As to the kind of experiment: Peptide effects on growth hormone release, plasma GH by RIA in anesthetized male rats. The format is in vivo, rat. The conditions noted are these: 15 min, saline 454 ± 62. As for the experimental part:
In this evaluation, the procedures described by W. A. Murphy et al., Endocrinology 109:491-495 (1980), were employed.
In growth hormone (GH) experiments, male rats (Charles Rivers) were anesthetized with NEMBUTAL® (6 mg per 100 g body weight) which also served to maintain stimulated plasma GH levels. Exactly 30 minutes after the rats were anesthetized, 0.5 mL of saline or the test peptide in saline was administered as a SC bolus. A 1 mL blood sample was drawn from the jugular vein 15 minutes after the injection of the peptide in saline. GH levels were determined using NIADDKD rat GH RIA components.

The subject of assay [2] is dairy cows. The experiment in a line: Effect on milk production in dairy cows, treatments administered subcutaneously. The format is in vivo. The conditions noted are these: for Milk Production: 10-day treatment period, mean, saline control 22.2; for % increase over control: milk production, vs saline control. As for the experimental part:
In this test, treatments are administered using a Latin Square design using four cows. Each treatment period is 10 days, and the interval between treatments is 4 days.
There is a pre-treatment period of one week, at the end of which each cow receives an indwelling jugular catheter. Catheters are flushed daily with heparinized (500-1000 IU/ml) sterile saline to help maintain potency and are replaced as needed.
The drugs are solubilized in sterile saline and injected subcutaneously each day with the dosage based on the cow's weight. Dosages range from 0.06 mg/kg animal/day to 60 mg/kg animal/day, preferably 0.10 mg/kg animal/day to 50 mg/kg/day.
On the first and last treatment days of each period, blood is collected at 15 minute intervals for 1 hour prior to and 11/2 hours after treatment; sampling continues at 30 minutes intervals for an additional 31/2 hours.
Milk samples are obtained on the evening proceeding each bleeding day, the morning of each bleeding day and combined (50% each).
Feed intake, refusals and milk production is monitored for all animals.
Results obtained are reported as mean milk production in kg/day for each treatment and compared against a saline control.

As for `CC[C@H](C)[C@H](NC(=O)[C@H](C)NC(=O)[C@H](CC(=O)O)NC(=O)[C@@H](C)NC(=O)[C@@H](N)Cc1ccc(O)cc1)C(=O)N[C@@H](Cc1ccccc1)C(=O)N[C@H](C(=O)N[C@@H](CC(N)=O)C(=O)N[C@@H](CO)C(=O)N[C@@H](Cc1ccc(O)cc1)C(=O)N[C@@H](CCCNC(=N)N)C(=O)N[C@@H](CCCCN)C(=O)N[C@H](C(=O)N[C@@H](CC(C)C)C(=O)NCC(=O)N[C@@H](CCC(N)=O)C(=O)N[C@@H](CC(C)C)C(=O)N[C@@H](CO)C(=O)N[C@@H](C)C(=O)N[C@@H](CCCNC(=N)N)C(=O)N[C@@H](CCCCN)C(=O)N[C@@H](CC(C)C)C(=O)N[C@@H](CC(C)C)C(=O)N[C@@H](CCC(N)=O)C(=O)N[C@@H](CC(=O)O)C(=O)N[C@H](C(=O)N[C@@H](CCSC)C(=O)N[C@@H](CO)C(=O)N[C@@H](CCCNC(=N)N)C(N)=O)[C@@H](C)CC)C(C)C)[C@@H](C)O` [[D-Ala^2]-hpGRF(1-29)-NH2, D-alanine^2-human Pancreatic Growth Hormone-Releasing(1-29)-amide], the figures for the “Plasma GH” value in assay [1] (dose 0.08 μg/100 g BW SC), in assay [1] (dose 0.20 μg/100 g BW SC) and in assay [1] (dose 0.50 μg/100 g BW SC) were 1118 ± 158 ng/mL, 2122 ± 350 ng/mL and 3539 ± 109 ng/mL, respectively. Besides, the “Milk Production” value in assay [2] (0.4 mg/kg/day SC) stood at 23.9 kg/day; in assay [2] (0.8 mg/kg/day SC), 23.8 kg/day. The entries for the “% increase over control” value in assay [2] (0.4 mg/kg/day SC) and in assay [2] (0.8 mg/kg/day SC) were “+7.6%” and “+7.2%”, respectively.

The values are drawn from patent publication US5416073A, “Growth hormone-releasing peptides and method of treating animals, therewith” (The Adminstrators of the Tulane Educational Fund, priority 1985, dated 1995).
